Reference: US9624161B2 (priority 2009, dated 2017)

Legend:
[1] = tested on: morphine dependent rat model; experiment: Morphine dependent rat model of hot flashes (tail skin temperature); assay type: in vivo; conditions: 5, 10, 15 and 30 mg/kg (FIG. 13)
Method: In addition to the similarities to the human condition, this experimental animal model has a short turn around time which makes it a useful high throughput screening tool for identifying compounds that can alleviate vasomotor symptoms using the tail skin temperature (TST). TST probes TA-40 (Data Sciences International, MN) were taped to the base of the tails and baseline temperatures were obtained for 15 minutes. After 15 minutes the animals were treated with naloxone (1 mg/kg, SQ) to reverse the effects of the morphine. Tail skin temperature (TST) was measured for one hour post-naloxone treatment with a sampling frequency of 5 secs throughout the course of the experiment. Following the data acquisition, the moving average of the temperature recorded every 60 seconds for each animal was calculated and further analyzed. Baseline temperature was computed as the average temperature acquired over the 15 minutes preceding naloxone administration. The area under the curve (AUC) was calculated by subtracting all the values post-naloxone administration from the baseline using a linear trapezoid method.

[2] = Preliminary oral pharmacokinetics in monkeys; assay type: in vivo, monkey; conditions: preliminary pharmacokinetic studies
Method: Formulations using polyethylene glycol 300 (PEG300) generally produced higher exposures than microemulsions prepared in Tween 80 diluted in deionized water. […] Importantly, in dogs the exposure in the male 30 mg/kg PEG300 oral dose group exceeded the exposure necessary to produce the maximal effect on prostate reduction in the rat model of LH suppression.

[3] = tested on: men with advanced prostate cancer; experiment: Study 2: Phase 2 trial in men with advanced prostate cancer, Compound IV 1000 or 2000 mg daily versus leuprolide depot; assay type: in vivo, human; conditions: for Castrated (%) at Day 28 / Castrated (%) on both Day 28 and Day 60 / No. Castrated at Day 28 / No. Castrated on both Day 28 and Day 60: ITT; for Subjects that achieved castration (total T<50 ng/dL) by Day 60: subjects that reached Day 60; for % Reduction on PSA at Day 28 / Mean Free T at Day 28 / Mean Total T at Day 28: subjects castrated on both day 28 and day 60; for Castration (%): patients receiving >14 days; for Median free testosterone: Day 120; for Median increase in SHBG: Day 90
Method: This was a prospective, randomized 1:1:1, Phase 2 open-label, multicenter, trial comprised of men with advanced prostate cancer (n=159) initiating ADT with either oral daily doses of 1000 mg Compound IV, oral daily doses of 2000 mg Compound IV, or leuprolide depot (Lupron Depot® 4 month). It was conducted according to the Declaration of Helsinki, approved by appropriate research ethics committees, and each patient provided signed informed consent prior to registration and randomization. Patient demographlics are outlined in Table 24.
The trial required each subject to remain on the study for at least 60 days. […] Subjects that achieved castration by day 60 continued for up to 360 days to assess the safety of Compound IV over this dosing duration and to assess the maintenance of total testosterone levels ≦50 ng/dL.
The major inclusion criteria for the trial were: Males between 45-80 years of age; ECOG ≦2; screening serum total testosterone ≧150 ng/dL; no prior ADT (medical or surgical) unless the subject had been treated with LHRH agent for ≦6 months duration and that treatment was ≧1 years prior to screening.
The primary endpoint of the clinical trial was the proportion of patients that achieve ≦50 ng/dL total testosterone by Day 60. Secondary efficacy endpoints evaluated included serum concentrations of free testosterone, PSA, SHBG, safety and tolerability of Compound IV, incidence and frequency of hot flashes, serum bone turnover markers [bone specific alkaline phosphatase (BSAP) and c-terminal telopeptide (CTX)] and IGF-1 levels, an indicator of insulin resistance.
All serum hormone and PSA measurements were performed by a central laboratory utilizing standard techniques. Serum total testosterone concentrations were determined using a validated liquid chromatography-tandem mass spectrometry (LC/MS-MS) method. This is the assay platform that is current utilized for total testosterone by most major laboratories and provides values which are more accurate at the lower levels of testosterone found in women, children, hypogonadal men, and men on ADT. The percent free testosterone was determined by equilibrium dialysis. Free testosterone concentrations were calculated as the product of (total testosterone by LC/MS/MS) and (free fraction by equilibrium dialysis). This combination of approaches is considered to be the gold standard with which to measure free testosterone with excellent accuracy and validity (sensitivity and specificity).
Hot flash assessments were performed utilising a standard instrument to measure the frequency and severity of hot flashes, and data were compiled at baseline, Day 28 and Day 90. The men reported as experiencing hot flashes were those indicating any in the period between the respective time point and the prior patient visit. CTX (pg/ml) assayed by an electrochemiluminescent immunoassay and BSAP (U/L) assayed by immunoenzymatic methodology were measured as indicators of bone turnover. Serum IGF-1 levels were measured by liquid chromatography/mass spectrometry (LC/MS) at the same time each day (within a +/−60 minute window).
Simple descriptive statistics and graphics were used to present the characteristics of the study population. One way Analysis of Variance (PROC GLM with CONTRAST statement) methods were used to compare total testosterone percent change from baseline to Day 28, Day 60 and Day 90. Kaplan Meier survival analysis was used to estimate the proportion of subjects that reached castrate levels by Day 60 in each treatment arm based upon time to total testosterone of ≦50 ng/dL. Fisher Exact tests were used to compare rate of hot flashes at Day 28 and Day 90 among the two Compound IV and the leuprolide arms. One way ANOVA methods were also used to compare CTX and BSAP changes from baseline to Day 120 between treatment groups. The intent-to-treat (ITT) population consisted of all randomized patients who received at least one dose of Compound IV or leuprolide depot. […]

[4] = tested on: male or female dogs; experiment: Single and repeated oral dose toxicity in dogs (up to 28 days); assay type: in vivo, dog
From the text: Compound IV was well-tolerated by rats and dogs after single and repeated oral administration (up to 28 days).

[5] = 1000 mg Compound IV, baseline to Day 120
[6] = preliminary analysis, Compound IV 2000 mg daily (41 assessed) or Lupron Depot (49 assessed)

O=C(c1ccc(O)c(F)c1)N(c1ccc(O)cc1)c1ccc(F)cc1 [Compound IV, 3-fluoro-N-(4-fluorophenyl)-4-hydroxy-N-(4-hydroxyphenyl)benzamide]
Effect on hot flashes (tail skin temperature after naloxone) [1]: attenuated hot flashes
Oral bioavailability [2]: approximates or exceeds that in dogs
Median free testosterone in castrate men (total testosterone ≦50 ng/dL) ([3]; 1000 mg): 0.4 pg/mL
Castrated (%) at Day 28 ([3]; 1000 mg Compound IV (n = 53)): 49%
Castrated (%) on both Day 28 and Day 60 ([3]; 1000 mg Compound IV (n = 53)): 30%
No. Castrated at Day 28 ([3]; 1000 mg Compound IV (n = 53)): 26
No. Castrated on both Day 28 and Day 60 ([3]; 1000 mg Compound IV (n = 53)): 16
Subjects that achieved castration (total T<50 ng/dL) by Day 60 ([3]; 1000 mg Compound IV arm): 43.4%
Bone specific alkaline phosphatase (BSAP) percentage change [3, 5]: −26.3%
C-terminal telopeptides (CTX) percentage change [3, 5]: −55.3%
% Reduction on PSA at Day 28 ([3]; 1000 mg Compound IV): 84%
Mean Free T at Day 28 ([3]; 1000 mg Compound IV): 1.0 ± 0.8 pg/mL
Mean Total T at Day 28 ([3]; 1000 mg Compound IV): 25 ± 15 ng/dL
Castration (%) ([3]; 1000 mg QD, D28): 50%
Castration (%) ([3]; 1000 mg QD, D60): 59.4%
Castration (%) ([3]; 1000 mg QD, Ever): 61.5%
Median free testosterone ([3]; 1000 mg arm): 0.4 pg/mL
Subjects with a venous thromboembolism event (VTE) ([3]; 1000 mg dose arm): 9 subjects
Median increase in SHBG ([3]; 1000 mg): 495%
Median free testosterone in castrate men (total testosterone ≦50 ng/dL) ([3]; 2000 mg): 0.3 pg/mL
Castrated (%) at Day 28 ([3]; 2000 mg Compound IV (n = 55)): 56%
Castrated (%) on both Day 28 and Day 60 ([3]; 2000 mg Compound IV (n = 55)): 51%
No. Castrated at Day 28 ([3]; 2000 mg Compound IV (n = 55)): 31
No. Castrated on both Day 28 and Day 60 ([3]; 2000 mg Compound IV (n = 55)): 28
Subjects that achieved castration (total T<50 ng/dL) by Day 60 ([3]; 2000 mg Compound IV arm): 63.6%
Bone specific alkaline phosphatase (BSAP) percentage change ([3]; 2000 mg Compound IV, baseline to Day 120): −22.6%
% Reduction on PSA at Day 28 ([3]; 2000 mg Compound IV): 73%
Mean Free T at Day 28 ([3]; 2000 mg Compound IV): 0.7 ± 0.7 pg/mL
Mean Total T at Day 28 ([3]; 2000 mg Compound IV): 19 ± 9 ng/dL
Castration (%) ([3]; 2000 mg QD, D28): 31%
Castration (%) ([3]; 2000 mg QD, D60): 79.6%
Castration (%) ([3]; 2000 mg QD, Ever): 84.6%
Median free testosterone ([3]; 2000 mg arm): 0.3 pg/mL
Subjects with a venous thromboembolism event (VTE) ([3]; 2000 mg dose arm): 2 subjects
Median increase in SHBG ([3]; 2000 mg): 583%
Percentage of treated ADT naïve patients (castrate population) below the Free T cutoff of 0.5 pg/ml ([3]; 28 days on therapy): 28.3%
Percentage of treated ADT naïve patients (castrate population) below the Free T cutoff of 0.5 pg/ml ([3]; 45 days on therapy): 50.9%
Percentage of treated ADT naïve patients (castrate population) below the Free T cutoff of 0.5 pg/ml ([3]; 120 days on therapy): 58.1%
Rate of hot flashes relative to that in the leuprolide treated group ([3]; Day 90 visits): ≤ 25%
PSA level reached on average ([3]; Study 2 (FIG. 35)): < 0.2 µg/L
Change in serum IGF-1 level ([3]; Study 2, 1000 mg daily (n = 53), Day 1 to Day 28): -75.2 ± 25.6 ng/mL
Change in serum IGF-1 level ([3]; Study 2, 1000 mg daily (n = 53), Day 1 to Day 60): -73.7 ± 29.2 ng/mL
Change in serum IGF-1 level ([3]; Study 2, 1000 mg daily (n = 53), Day 1 to Day 90): -73.1 ± 25.1 ng/mL
Change in serum IGF-1 level ([3]; Study 2, 1000 mg daily (n = 53), Day 1 to Day 360): -35.2 ± 40.5 ng/mL
Change in serum IGF-1 level ([3]; Study 2, 2000 mg daily (n = 55), Day 1 to Day 28): -78.6 ± 38.3 ng/mL
Change in serum IGF-1 level ([3]; Study 2, 2000 mg daily (n = 55), Day 1 to Day 60): -77.7 ± 39.9 ng/mL
Change in serum IGF-1 level ([3]; Study 2, 2000 mg daily (n = 55), Day 1 to Day 90): -72.7 ± 24.9 ng/mL
Change in serum IGF-1 level ([3]; Study 2, 2000 mg daily (n = 55), Day 1 to Day 360): -33.4 ± 45.2 ng/mL
Mean SHBG for PSA responders (>50% reduction) ([3]; Study 2, all patients (FIG. 37)): 399%+85
Reduction in reported hot flashes ([3]; day 90): greater than 4 fold
Increase in SHBG levels in men that responded ([3]; in vivo): 200-600%
Number of Subjects that Experienced a Hot Flash [3, 6]: 2
Percent of Subjects that Experienced a Hot Flash [3, 6]: 5%
Induction of baseline SHBG ([3]; treatment naive patients (Study 2 and Study 5), after 28 days): 150-700%
Patients with at least a 50% reduction in % FreeT ([3]; treatment naïve patients (Studies 2 and 5), after 7 days of therapy): 81%
Patients with both at least a 50% reduction in % FreeT and a 50% reduction in PSA from baseline ([3]; treatment naïve patients (Studies 2 and 5), after a month): 80%
Molar ratio of SHBG to Total T relative to leuprolide acetate treated patients ([3]; treatment naïve patients, after 28 days): 3-7 fold
Drop in % FreeT ([3]; treatment naïve patients, day 28): 70%
Tolerability after single and repeated oral administration [4]: well-tolerated
